From the supplement of paper PMC10307832

Tests used:
Experiment in all cases: relative viability (nuclei count vs DMSO), 5 days (fraction); higher = more cells survive
Linifanib + Palbociclib = compound: Cc1ccc(F)c(NC(=O)Nc2ccc(-c3cccc4[nH]nc(N)c34)cc2)c1 [Linifanib] + CC(=O)c1c(C)c2cnc(Nc3ccc(N4CCNCC4)cn3)nc2n(C2CCCC2)c1=O [Palbociclib] (partner 0.5 µM)
In short: (§1)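 Relative viability equals treated-well nuclei counts divided by vehicle-well nuclei counts. Counts came from 4× images of lung cancer cell lines grown in 1536-well plates for 5 days after pin-tool dosing on the day after seeding. Dosing used one drug alone or a fixed anchor-drug dose plus five library-drug doses (not always all listed) in √10 steps, and values are medians of duplicate plates.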

Linifanib + Decitabine = compound: Cc1ccc(F)c(NC(=O)Nc2ccc(-c3cccc4[nH]nc(N)c34)cc2)c1 [Linifanib] + Nc1ncn([C@H]2C[C@H](O)[C@@H](CO)O2)c(=O)n1 [Decitabine] (partner 2 µM)
In short: as §1

Linifanib = compound: Cc1ccc(F)c(NC(=O)Nc2ccc(-c3cccc4[nH]nc(N)c34)cc2)c1 [Linifanib]
In short: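 Five library-drug doses spaced by √10 were pinned onto vehicle-anchored 1536-well plates of lung cancer cell lines that had been kept overnight at 37 °C. Cells went 5 days without medium change, then were fixed, permeabilised and Hoechst-stained together, imaged at 4× and counted by MetaXpress. Viability is the ratio of treated-well to vehicle-well nuclei, taken as a median over plates. Plates required control CV below 25% and at least one doubling.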

Cell Line	relative viability (Linifanib + Palbociclib; first compound 0.03162 µM)	relative viability (Linifanib + Palbociclib; first compound 0.1 µM)	relative viability (Linifanib + Palbociclib; first compound 0.3162 µM)	relative viability (Linifanib + Decitabine; first compound 0.03162 µM)	relative viability (Linifanib + Decitabine; first compound 0.1 µM)	relative viability (Linifanib + Decitabine; first compound 0.3162 µM)	relative viability (Linifanib; 0.03162 µM)	relative viability (Linifanib; 0.1 µM)	relative viability (Linifanib; 0.3162 µM)
HCC-78	0.513	0.433	0.447	0.784	0.752	0.717	0.99	1.17	0.885
NCI-H596				0.915	1.01	1.06	0.94	1.03	0.884
HCC-366	0.398	0.427	0.373	0.417	0.328	0.336	1.06	1.05	0.949
NCI-H520	0.22	0.216	0.238	0.461	0.6	0.542	0.862	1.07	0.955
RERF-LC-KJ	1.07	1.1	1.05	0.707	0.651	0.717	1.04	0.989	0.96
NCI-H1915	0.541	0.548	0.507	0.286	0.247	0.257	1.03	1.02	0.934
NCI-H3122	0.19	0.196	0.179	0.442	0.418	0.487	1.02	1.02	0.975
NCI-H661	0.437	0.398	0.417	0.559	0.626	0.582	1.02	0.977	0.962
CAL-12T	0.485	0.446	0.419				1.15	0.99	0.9
NCI-H647	0.342	0.506	0.484	0.339	0.368	0.481	1.05	1.05	0.945
HOP-62	0.454	0.453	0.465	0.194	0.197	0.2	1.06	1.03	0.974
NCI-H2228	0.803	0.85	0.818				0.993	1.3	1.03
NCI-H441	0.222	0.24	0.228	0.264	0.291	0.253	1.1	1.27	0.974
COR-L23	0.31	0.298	0.273	0.448	0.455	0.396	1.1	1.11	1
LXF-289	0.668	0.612	0.564	0.376	0.355	0.326	1.04	1.04	0.84
NCI-H1734	0.322	0.357	0.394	0.493	0.514	0.508	1.04	1.06	0.942
NCI-H2009	0.247	0.263	0.25	0.371	0.41	0.378	1.08	0.972	0.987
NCI-H1395	0.656	0.673	0.691	0.725	0.753	0.698	0.956	0.983	0.868

Cell Line	relative viability (Linifanib + Palbociclib; first compound 0.03162 µM)	relative viability (Linifanib + Palbociclib; first compound 0.1 µM)	relative viability (Linifanib + Palbociclib; first compound 0.3162 µM)	relative viability (Linifanib + Decitabine; first compound 0.03162 µM)	relative viability (Linifanib + Decitabine; first compound 0.1 µM)	relative viability (Linifanib + Decitabine; first compound 0.3162 µM)	relative viability (Linifanib; 0.03162 µM)	relative viability (Linifanib; 0.1 µM)	relative viability (Linifanib; 0.3162 µM)
NCI-H2342	0.594	0.562	0.481	0.732	0.713	0.768	1.04	0.977	0.882
NCI-H838	0.22	0.223	0.23	0.521	0.472	0.443	0.96	1.06	0.936
NCI-H2405	0.56	0.532	0.513	0.766	0.747	0.756	1.08	1.04	0.966
NCI-H1355	0.398	0.411	0.389	0.352	0.387	0.338	1.03	1.07	0.99
NCI-H1993	0.688	0.826	0.725	0.631	0.654	0.59	0.89	1.2	0.946
NCI-H1755	0.47	0.461	0.429	0.696	0.731	0.698	1.03	1.06	0.987
ChaGo-K-1	0.984	0.881	0.916	0.497	0.531	0.509	1.07	1.01	0.983
NCI-H650	0.37	0.308	0.376	0.371	0.355	0.312	1.1	1.11	0.972
SW 900	0.551	0.603	0.514	0.478	0.515	0.474	0.912	1.02	0.865
NCI-H2347	0.462	0.441	0.404	0.622	0.616	0.598	1.08	1.22	1
SK-LU-1	0.359	0.449	0.366	0.672	0.645	0.669	1.07	1.11	1.01
NCI-H322M	0.488	0.487	0.441	0.732	0.697	0.77	1	0.939	0.956
NCI-H2023	0.357	0.415	0.345	0.228	0.228	0.203	0.972	1.09	1.02
LCLC-97TM1	0.212	0.243	0.196	0.222	0.228	0.249	1.15	1.02	0.919
SW 1573	0.367	0.448	0.366	0.514	0.604	0.584	0.98	1.08	0.963
HCC-15	0.723	0.741	0.842	0.745	0.693	0.629	1.08	1.05	0.939
NCI-H727	0.596	0.67	0.651	0.883	0.885	0.88	0.899	1.02	0.855
PC-14	0.444	0.584	0.463	0.231	0.252	0.206	0.999	1	0.904
